Results taken from PMC5515971, “Utility of spherical human liver microtissues for prediction of clinical drug-induced liver injury” (Archives of Toxicology, 2017).
pIC50: −log10 of the molar value. “Also recorded” adds a separate entry of the source. Where two headings read alike, the source gives them in different places.

What was measured:
[1] = system: primary human hepatocytes (PHH); assay: Cytotoxicity (cellular ATP, CellTiter-Glo) in 2D plated primary human hepatocytes, 48 h treatment; format: cell-based; conditions: Hepatocyte; 2D primary human hepatocytes (lot IZT), 48 h treatment, total cellular ATP content; read-out: Geomean IC50;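 also: 384-well plates, luminescence read-out, normalized to vehicle wells with 1% DMSO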
Protocol: Cryopreserved PHH (lot IZT) were thawed in InVitroGro HT™ thawing media at 37 °C, pelleted, and resuspended. Viable hepatocytes were counted by Trypan blue exclusion and plated in black-walled, BioCoat™ collagen 384-well plates at 13,000 cells/well in InVitroGro CP™ plating media supplemented with 1% Torpedo™ Antibiotic Mix and 5% fetal bovine serum and incubated overnight for 18 h. Cells were then treated with compounds for 48 h diluted in InVitroGro HI™ incubation media containing 1% Torpedo Antibiotic Mix, 10% fetal bovine serum, and 1% DMSO. […] Luminescence was determined on an EnVision™ Muliplate Reader (PerkinElmer, Waltham, MA, USA), and data were normalized to vehicle (1% DMSO) control wells.

BSEP transporter = system: BSEP transporter; set-up: method as in Kenna et al. [2015]; conditions: ref Kenna et al. [2015]; cited from earlier work
[2] = cited from earlier work
[3] = cited from earlier work; for P/N (DILI positive / DILI negative): P = DILI severity categories 1, 2 and 3, N = categories 4 and 5; for DILI category: clinical, from literature and product labels
[4] = ref Chen et al 2016 / Chen et al 2011; cited from earlier work
[5] = Clinical DILI severity categorization and DILI pattern; conditions: P = DILI severity categories 1, 2 and 3; N = categories 4 and 5
[6] = system: 3D human liver microtissues (hLiMT); assay: Cytotoxicity (cellular ATP, CellTiter-Glo 2.0) in 3D human liver microtissues, 14 day repeat-dose treatment; conditions: for IC50 / pIC50: Homo sapiens, 336 h; for IC50: Hepatocyte, read-out: Geomean IC50 [µM]
[7] = system: 3D human liver microtissues (hLiMT); assay: Cytotoxicity (cellular ATP) in 3D human liver microtissues, 5-6 days treatment; format: cell-based; conditions: Homo sapiens; hLiMT, 5/6 days, ATP content; read-out: IC50 SHORT;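 also: Hanging-drop spheroids, seven-point dilution series, re-dosed on day 3, CellTiter-Glo 2.0 luminescence, normalized to 0.5 or 1% DMSO vehicle controls on the same plate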
[8] = system: 3D human liver microtissues (hLiMT); assay: alpha-GST release into hLiMT supernatant (ELISA); format: cell-based; conditions: 336 h, 14 days, release into medium, read-out: IC50 (α-GST assay)
Protocol: Supernatants from single hLiMT (in triplicates) were analysed for α-GST content using EKF’s α-GST ELISA assay. Briefly, 50 μL of the thawed cell-culture supernatants from single microtissues was transferred into a new v-bottom plate and diluted with 60 μl sample diluent buffer. From this dilution, 100 μL were transferred to the microassay strips. The ELISA was otherwise performed according to the manufacturer’s instructions.

[9] = system: 3D human liver microtissues (hLiMT); assay: HMGB1 levels in hLiMT supernatant (ELISA); format: cell-based; conditions: 5 days exposure
Protocol: Supernatants from single hLiMT (in triplicates) were analysed for HMGB1 content using IBLs ELISA assay using the high sensitive range test procedure. Briefly, 50 μL of the thawed cell-culture supernatants from single microtissues or diluted standards were incubated in the microtiter plate along with 50 μL of the diluent buffer for 20-24 h at 37 °C in the dark. The plate was then washed 5 times with 400 µL diluted wash buffer (1:5), blotted dry and 100 µL enzyme conjugate added. After incubation in the dark for 2 h at 25 °C the plate was washed 5 times with 400 µL diluted wash buffer, blotted dry and then 100 µL colour solution added. The plate was incubated for a further 30 min at room temperature prior to the addition of 100 µL stop solution. The absorbance was then determined at 450 nm using an EnVision® plate reader (PerkinElmer, Waltham, MA, USA) within 60 min. The concentration of HMGB1 in the samples was read off the high sensitivity range standard curve obtained from plotting the OD of the standards against the concentration (ng/L).

[10] = system: 3D human liver microtissues (hLiMT); assay: miR-122 levels in hLiMT supernatant (qRT-PCR); format: cell-based; conditions: 5 days exposure
Protocol: miRNA extraction miRNA was extracted using a miRNeasy kit, following the manufacturer's instructions, and as described by Starkey et al. 2016 with minor modifications. Thirty-eight µL thawed hLiMT supernatant was mixed with 162 µL nuclease-free water and 700 µL QIAzol reagent and then incubated for 5 min at room temperature. Chloroform (100 µL) was added, the samples shaken vigorously for 15 sec and then centrifuged at 12,000 g for 15 min at 4 °C. The supernatant was then mixed with 500 µL 70% ethanol and transferred to a miRNeasy minispin column. The column was centrifuged at >8000 g for 15 sec. The elute was then purified using a MinElute kit
miRNA purification The small RNA elution mixture was applied to the MinElute column 700 µL at a time. […]
qRT-PCR One µl thawed cDNA was mixed with 19 µl miR-122 or cel-lin4 PCR reaction master mix containing 1 µL Taqman^TM miR-122 or cel-lin4 primer small RNA assay (20X), 10 µl Taqman^TM universal PCR master mix II (2X) and 8 µL nuclease free water. Levels of miRNA were measured by the fluorescent signal produced from the Taqman probes on an ABI Prism 7000 (Applied Biosystems). miRNA levels were normalized to levels of cel-lin4 miRNA. Relative miRNA production was determined with the ΔCt method and reported as 2−ΔCt, where Ct is the threshold cycle. Differences in miRNA concentration were expressed as fold changes relative to control.

[11] = system: 3D human liver microtissues (hLiMT)
[12] = set-up: method as in Russmann et al. [2005]; conditions: patients; ref Russmann et al. [2005]; cited from earlier work
[13] = human Cmax total, used for IC50/Cmax
[14] = human total plasma Cmax, ref literature values
[15] = Table 1, ref Garside et al. (2014)
[16] = clinical DILI severity category, 1-5
[17] = table S-4, ref Garside et al. 2014

Row | SMILES | pIC50 [1] | Cmax [2, 13] [nM] | Cmax [2, 14] [nM] | P/N (DILI positive / DILI negative) [3] | DILI severity category [3, 15] | DILI severity category [3, 16] | DILI category ([3]; ref Garside et al. 2014) | FDA DILI Classification DILI severity score [4] | LTKB DILI classification [4] | P/N (DILI positive / DILI negative) [5] | IC50 [6] [µM] | pIC50 [7] | DILI severity category [3, 17] | also measured
1 | COC(c1ccccc1)(c1ccccc1)[C@H](Oc1nc(C)cc(C)n1)C(=O)O [Ambrisentan] | < 4.00 | 790 | 790 | N | 5: No DILI (N = 25) | 5. No DILI | 5. No DILI | 7 | Ambiguous DILI concern | N | > 100 | – | – | fold lower potency to inhibit BSEP transporter function than bosentan (BSEP transporter): 10 fold; fold lower potency to inhibit BSEP transporter function than sitax(s)entan (BSEP transporter): 30 fold; cytotoxicity ([6]; hLiMT 14 days, in words): did not detect cytotoxicity; also recorded: not cytotoxic
2 | CN(C)CCCN1c2ccccc2Sc2ccc(Cl)cc21 [Chlorpromazine] | 4.72 | 940 | 940 | – | 3: Low clinical DILI concern (N = 23) | 3. Low Clinical DILI Concern | 3. Low Clinical DILI Concern | 2 | less DILI concern | – | ~7.4 | 4.96 | 3 | pIC50 [8]: 4.34; release of HMGB1 [9]: dose-dependent release; release of miR-122 [10]: dose-dependent release; DILI severity category ([3]; table S-5, ref Garside et al. 2014): 3. Low Clinical DILI Concern; pIC50 ([6]; read-out: IC50 (ATP-assay)): 5.15; pIC50 ([6]; read-out: IC50 LONG): 5.15
3 | Nc1nc(F)nc2c1ncn2[C@@H]1O[C@H](CO)[C@@H](O)[C@@H]1O [Fludarabine] | < 4.30 | 170 | 170 | N | 4: Enzyme elevations in clinic (N = 16) | 4. Enzyme Elevations in Clinic | 4. Enzyme Elevations in Clinic | 0 | no DILI concern | N | 6.8 | – | – | Geomean IC50/cmax [11]: 39.9
4 | CC(C)c1nc(N(C)S(C)(=O)=O)nc(-c2ccc(F)cc2)c1/C=C/[C@@H](O)C[C@@H](O)CC(=O)O [Rosuvastatin] | < 4.00 | 10 | 10 | – | 3: Low clinical DILI concern (N = 23) | 3. Low Clinical DILI Concern | 3. Low Clinical DILI Concern | 3 | less DILI concern | – | 7.8 | 4.47 | 3 | mild, transient elevations of plasma enzyme levels [12]: 1–3%
